Reference: patent publication US8729227B2, “Compounds for control of appetite” (University of Cincinnati, priority 2006, dated 2014)

Experiments:
[1] = test system: C57BL/6 male mice; assay: Feeding pattern of fasted mice after ip injection of hPP or B-74 (Example II, FIG. 1); type: in vivo; details: 18 h fasted mice, B-74 100 nmol/mice, versus saline control
Method: To study the feeding patterns of animals treated with B-74, seven to eight week old C57BL/6 male mice (Harlan Laboratories, Indianapolis, Ind.) were individually housed in cages in a temperature controlled room (25° C.) under 12-hour light/dark cycles. Mice had free access to water and standard chow and were acclimatized to daily ip saline injections. […] Food was provided ten (10) minutes later, and the 2 and 4 hour food intake was monitored. Statistical significance was determined by ANOVA, with individual means being compared post-hoc by Tukey's corrected t-test.

[2] = native PP; cited from earlier work
[3] = test system: C57BL/6 male mice; assay: Preliminary dose study of B-48 on food intake of fasted mice (Example III); type: in vivo; details: ip, overnight (18 h) fasted mice, food intake monitored over 1-24 h; preliminary studies, results not shown
Method: To further study the feeding patterns of animals treated with B-48, experiments were performed in seven to eight week old C57BL/6 male mice (Harlan Laboratories, Indianapolis, Ind.) after acclimatization of mice for one week. More specifically, in preliminary studies, overnight (18 h) fasted animals were injected (ip) with 0.1 ml of saline or saline (0.1 ml) containing various concentrations of B-48 (0.025, 0.050, 0.100 or 0.150 μmol/mice) (n=8-10 per group). The mice were provided with a known quantity of chow 10 min later. The food intake was monitored over 1-24 h.

[4] = test system: C57BL/6 male mice; assay: Food intake of fasted mice after ip B-48 or B-74 alone or together (Example IV, FIGS. 2 and 3); type: in vivo; details: for Percentage of Inhibition of Food Intake Compared to Saline: B-48 vs. (B-48 + B-74), fasted mice, 0.050 μmol each compound
Method: To further compare the inhibitory effects of injecting (ip) 0.050 μmol of B-48 or B-74 alone or together (B-48+B-74) on the food intake by fasted mice, additional experiments were conducted.
Accordingly, to study the feeding patterns of animals treated with B-48 or B-74 alone or together (B-48+B-74), seven to eight week old C57BL/6 male mice (Harlan Laboratories, Indianapolis, Ind.) were individually housed in cages in a temperature controlled room (25° C.) under 12-hour light/dark cycles. The mice had free access to water and standard chow. After acclimatizing for one week, mice were fasted 18 hours before the experiment. The fasted animals were injected (ip) with 0.1 ml of saline or saline (0.1 ml) containing B-48 (0.050 μmol/mice) or B-74 (0.050 μmol/mice) alone or together, B-48+B-74 (0.100 μmol/mice, i.e. 0.050 μmol/mice per each compound), (n=8-10 per group). The mice were provided with a blown quantity of chow 10 minutes later. The food intake was monitored over 1-24 h. Statistical significance was determined by AN OVA, with individual means being compared post-hoc by Tukey's corrected t-test.

Substance	2 h food intake ([1]; 2 h)	4 h food intake ([1]; 4 h)	half-life [2]	minimum dose required to exhibit significant inhibitory effects on food intake [3] [μmol/mice]	Percentage of Inhibition of Food Intake Compared to Saline ([4]; 2 hours after injection) [%]	Percentage of Inhibition of Food Intake Compared to Saline ([4]; 4 hours after injection) [%]	Percentage of Inhibition of Food Intake Compared to Saline ([4]; 8 hours after injection) [%]	inhibition of food intake over the 24 h time period ([4]; 18 h fasted mice, 0.050 μmol/mice per each compound, alone or together)	Percentage of Inhibition of Food Intake Compared to Saline ([4]; 24 hours after injection) [%]
APLEPVYPGDNATPEQMAQYAADLRRYINMLTRPRY [PP]	inhibited	inhibited	about six	–	–	–	–	–	–
N-α-Ac[Nle^24,28,Trp^30,Nva^31,ψ^35/36]PYY(22-36)-NH2 (ASXRHYXNWXTRQRY; N-acetyl, C-amide, Nle, Nva, reduced CH2-NH bond; synthesized by man) [B-48, PYY(22-36) analog, Y2 receptor agonist; ψ is —CH2-NH—]	–	–	–	0.050	39	30	16	inhibited food intake to a greater extent than the control	7
